Drawing on PubChem BioAssay (NCI), this text covers GI50 and TGI for 36 compounds.

Each structure is given as a SMILES string. “And” between values parts separate entries of the source, which are not always exact repeats. Identical values can stand only once.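 Results reflect a 48-hour exposure of cells in 96-well plates to compound at five concentrations. The concentration for 50% growth inhibition is given as GI50. TGI marks complete inhibition of growth.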

In this experiment the test system is MDA-MB-468 breast. Kind of experiment: NCI anticancer screen, dose series, 48 h.
Turning to `CN1CCN(c2cc(C(=O)Nc3cc4cc(-c5cnn(C)c5)ccc4cn3)ccn2)CC1`, the GI50 is 0.0348 µM and the TGI is 0.286 µM.

With `Cc1cc2cn3c4ccc(O)cc4[nH]c(=O)c3c2cc1C`, the GI50 was 0.178 µM and the TGI worked out at 0.772 µM.

With `CS(=O)(=O)Nc1cccc(-c2cc(-c3ccccc3Cl)c(C#N)c(N)n2)c1`, the GI50 is 1.19 µM and the TGI came to 7.75 µM.

As to `O=c1c(O)cccc2cc(O)c(O)c(O)c12`, the GI50 is 47.6 µM and the TGI is above 100 µM.

`CCN(CC)c1ccc2c(c1)Oc1nc(N)c(C#N)c(N)c1C2Sc1ccc(OC)cc1` (stereo unspecified): the GI50 was 1.85 µM and the TGI stood at 3.51 µM.

As for `Nc1ccccc1NC(=O)c1ccc(CCCC(=O)Nc2ccc(C3CC3N)cc2)cc1` (stereo unspecified), the GI50 is 1.62 µM and the TGI was determined as 4.53 µM.

As to `COC1=CC(=O)C(OC)=C(OC)C1=O`, the GI50 was 1.61 µM and the TGI turned out to be 3.16 µM.

In the case of `Nc1ncnc2c1c(-c1cccc(OCc3ccccc3)c1)cn2C1CC(CN2CCC2)C1` (stereo unspecified), the GI50 was 1.96 µM and 2.14 µM; the TGI is 5.98 µM and 8.79 µM.

Turning to `CN(C)C/C=C/C(=O)Nc1cc2c(Nc3ccc(F)c(Cl)c3F)ncnc2cc1OCCOC(F)F`, the GI50 is below 0.01 µM.

As to `Cc1nccc2c3ccc(OCc4cn(-c5ccc(Cl)cc5)nn4)cc3n(CCCc3ccccc3)c12`, the GI50 was 6.07 µM and the TGI stood at 19.1 µM.

With `Cc1cc(O)c(C2=NN(c3ccc(S(N)(=O)=O)cc3)C(c3ccc(N(C)C)cc3)C2)c(C)c1Cl` (stereo unspecified), the GI50 is 17.1 µM and the TGI stood at 33.8 µM.

On to `Oc1cccc2ccc(-c3nnc(SCc4ccc(O)c5ncccc45)n3-c3ccccc3)nc12`, for which the GI50 is 0.813 µM and the TGI stood at 9.52 µM.

Regarding `O=[N+]([O-])c1ccccc1NC1c2ccccc2Oc2ccccc21`, the GI50 was 2.21 µM and the TGI came out at 5.4 µM.

Take `N#CC(C#N)N=Nc1ccc(Br)cc1`: the GI50 was 1.01 µM and the TGI is 5.1 µM.

As to `CN1C(=O)[C@@H](NC(=O)[C@H](CCC(F)(F)F)[C@H](CCC(F)(F)F)C(N)=O)N=C(c2ccccc2)c2ccccc21`, the GI50 was 21.2 µM and the TGI is above 100 µM.

As to `CCC(=C(c1ccc(OCCN(C)C)cc1)c1ccc(OCCN(C)C)cc1)c1ccc(Cl)cc1`, the GI50 was 2.95 µM and the TGI is 6.7 µM.

`C[C@@H]1Cc2c([nH]c3ccccc23)[C@@H](c2c(F)cc(NC3CN(CCCF)C3)cc2F)N1CC(F)(F)CO`: the GI50 was 1.95 µM and the TGI was 4.86 µM.

As for `CCCCCCCCCCCCCCCC[N+](C)(CCO)Cc1cnc[nH]1` (stereo unspecified), the GI50 was 0.396 µM and the TGI was 10.1 µM.

On to `CCCc1cc2cc(-n3nc(CC)c4c3CC(C)(C)CC4=O)cc(NC3CCC(O)CC3)c2c(=O)[nH]1` (stereo unspecified), for which the GI50 is 0.212 µM and the TGI is above 100 µM.

On to `COc1cc(Nc2ncc(F)c(Nc3ccc4c(n3)NC(=O)C(C)(C)O4)n2)cc(OC)c1OC`, for which the GI50 is 8.5 µM and 4.91 µM; the TGI is above 100 µM.

With `CS(=O)(=O)CCNCc1ccc(-c2ccc3ncnc(Nc4ccc(OCc5cccc(F)c5)c(C(F)(F)F)c4)c3c2)o1`, the GI50 is 1.42 µM and the TGI was found to be 6.09 µM.

As to `CN1CCN(c2ccc(Nc3nc(N)c(C(=O)c4ccc5c(c4)OCCO5)s3)cc2)CC1`, the GI50 was 5.56 µM and the TGI is above 17.6 µM.

Regarding `O=C(/C=C/C=C/c1c(C2CC2)nc2ccccc2c1-c1ccc(F)cc1)c1cccs1`, the GI50 was 2.75 µM and the TGI was above 100 µM.

With `O=C(O)CCC/C=C\C[C@H]1C=CC(=O)/C1=C/C[C@@H](O)CCc1cccc(C(F)(F)F)c1`, the GI50 is 1.24 µM and the TGI stood at 3.27 µM.

Turning to `Cc1cc(Nc2c3ccccc3nc3ccccc23)ccc1NS(C)(=O)=O`, the GI50 is 2.29 µM and the TGI came out at 8.81 µM.

In the case of `COC(=O)Nc1nc2ccc(C(=O)c3ccc(N(C)C4COC4)cc3)cc2[nH]1`, the GI50 is 0.224 µM and the TGI was above 100 µM.

Regarding `COc1cc(OC)c(/C=C/S(=O)(=O)Cc2ccc(OC)c(NC(=O)CCC(=O)NO)c2)c(OC)c1`, the GI50 was 0.0549 µM and the TGI is above 100 µM.

For the compound `O=C(NCCCNc1cc(-c2cn(-c3ccccc3)nc2-c2cccc(O)c2)ccn1)Nc1ccc(F)cc1`, the GI50 is 1.18 µM and the TGI amounted to 4.66 µM.

With `Fc1ccc(-c2ncn(C3CCNCC3)c2-c2ccnc(Oc3ccc(F)c(F)c3)n2)cc1`, the GI50 is 2.34 µM and the TGI was 5.86 µM.

As to `CN(C)c1ncc(-c2ccc(C(F)(F)F)cc2)c(NC2CCCCCC2)n1`, the GI50 was 14.3 µM and the TGI is 37.1 µM.

As to `CCn1cc(-c2ccnc3[nH]ccc23)c(-c2cccc(NC(=O)Nc3ccc(OCc4ccccc4)cc3)c2)n1`, the GI50 was 18.2 µM and the TGI is above 25 µM.

Turning to `Cc1cccc(/C=C/C(=O)Nc2ncc(Cc3cccc(C)c3)s2)c1`, the GI50 was 3.77 µM and the TGI is above 100 µM.

For `CC(C)CC(=O)Nc1n[nH]c2c1CN(C(=O)C1CCN(C)CC1)C2(C)C`, the GI50 is 1.13 µM and the TGI is 5.18 µM.

Regarding `N#CSc1c[nH]c2ccc(/C=C/C(=O)/C=C(/C=C/c3ccc4[nH]cc(SC#N)c4c3)OB(F)F)cc12`, the GI50 was 0.91 µM and the TGI worked out at 4.09 µM.

`CCCCCCCCCc1cc[n+](CC(=O)c2ccc([N+](=O)[O-])cc2)cc1`: the GI50 is 0.446 µM and the TGI is 1.75 µM.

For `CC(=O)N1c2ccccc2NC2=C(C(=O)N(Cc3ccccc3)C2(C)C)C1c1ccco1` (stereo unspecified), the GI50 was 0.0897 µM and the TGI is above 25 µM.
